pIC50: −log10 of the molar value.
Test: Inhibition of MDR1 (unknown origin) transfected in human SKOV3 cells assessed as growth inhibition after 48 hrs by SRB assay

Compound	pIC50
CCN(c1ccc(OC)cc1)c1nc(N)nc2[nH]c3ccccc3c12	7.14
CCOc1ccc(N(C)c2nc(N)nc3[nH]c4ccccc4c23)cc1	7.54

Reference: BindingDB's records for doi:10.1016/j.bmc.2012.12.010 (Duquesne University, 2013)
